Experimental data from US20260042769A1, “TRIARYL AGONISTS OF ALPHA-2 ADRENERGIC RECEPTORS” (ALCEPTOR THERAPEUTICS, INC., priority 2023, published 2026).
Read-outs that look alike come from different tables or passages of the source.

Biological target: T1, human ADRA2B receptor (Homo sapiens, UniProt P18089)
T1 construct: expressed in transfected cells
T1 sequence (P18089 1-450): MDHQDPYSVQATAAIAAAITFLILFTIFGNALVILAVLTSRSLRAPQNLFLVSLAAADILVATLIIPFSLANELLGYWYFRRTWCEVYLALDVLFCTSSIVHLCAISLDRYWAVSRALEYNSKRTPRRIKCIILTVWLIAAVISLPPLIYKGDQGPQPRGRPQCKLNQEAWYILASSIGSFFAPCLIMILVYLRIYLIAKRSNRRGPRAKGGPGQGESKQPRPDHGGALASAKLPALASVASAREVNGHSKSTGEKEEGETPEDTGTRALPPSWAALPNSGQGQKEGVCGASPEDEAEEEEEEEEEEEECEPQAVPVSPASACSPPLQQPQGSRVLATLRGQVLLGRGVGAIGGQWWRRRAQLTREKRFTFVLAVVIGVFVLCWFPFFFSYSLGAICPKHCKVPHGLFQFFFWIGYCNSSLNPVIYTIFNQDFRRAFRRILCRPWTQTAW
Experiment: ADRA2B arrestin agonist assay
Assay type: cell-based
Conditions: read-out: Beta-Arrestin - Human Alpha2B EC50
Procedure: ADRA2A and ADRA2B Arrestin Agonist Assay Method
The arrestin assay uses frozen CHO-K1 cell lines stably expressing human ADRA2A and ADRA2B receptors. Cells are frozen following normal cell freezing protocols. Briefly, cells are washed with PBS and then dissociated with 0.25% trypsin. Dissociated cells are quenched in full media and then collected by centrifugation at 290×g for 5 minutes. […] Cells are stored at −80° C. (or in liquid N2 if stored >6 months) until the day of the assay.
On the day before the assay, frozen cells are thawed in a 37° C. water bath, brought up in 20 mL of full media, and collected via centrifugation at 290×g for 5 minutes. […] Cells are incubated overnight in a 37° C., 5% CO2 cell incubator.
On the day of the assay, agonists are diluted in Opti-MEM to 3.5x of the final assay concentration. 4 μL of agonists are added to the cells and incubated for 2 hours at 37° C. in a 5% CO2 cell incubator. 6 μL of arrestin detection reagents are dispensed onto the cells and the plates are incubated for 2 hours at room temperature. […] Plates are read on an Envision luminescence plate reader.

[1] = CHO-K1 cells stably expressing human ADRA2B

Row | EC50 [1] | Compound | EC50
1 | < 10 nM | Cc1cc(CC(c2c[nH]cn2)c2cccc(C)c2C)nc(C(C)(C)F)n1 (centres unmarked) [Compound 206, 2-(1-fluoro-1-methylethyl)-4-[2-(4 imidazolyl)-2-(2,3-xylyl)ethyl]-6-methylpyrimidine] | 
2 | < 10 nM | Cc1cc(CC(c2c[nH]cn2)c2cccc(C)c2C)nc(C(C)(C)O)n1 (centres unmarked) [Compound 207, 2-{4-[2-(4-imidazolyl)-2-(2,3-xylyl)ethyl]-6-methyl 2-pyrimidinyl}-2-propanol] | 
3 | < 10 nM | Cc1cccc(C(Cc2ccnc(COC3CC3)n2)c2c[nH]cn2)c1C (centres unmarked) [Compound 208, 2-(cyclopropoxymethyl)-4-[2-(4-imidazolyl) 2-(2,3-xylyl)ethyl]pyrimidine] | 
4 | < 10 nM | COC(C)(C)c1nccc(CC(c2c[nH]cn2)c2cccc(C)c2C)n1 (centres unmarked) [Compound 209, 4-[2-(4-imidazolyl)-2-(2,3-xylyl)ethyl]-2-(1-methoxy-1-methylethyl)pyrimidine] | 
5 | < 10 nM | Cc1cccc(C(Cc2ccnc(C3COC3)n2)c2c[nH]cn2)c1C (centres unmarked) [Compound 210, 4-[2-(4-imidazolyl)-2-(2,3-xylyl)ethyl]-2-(3-oxetanyl)pyrimidine] | 
6 | > 500 nM | Cc1cccc([C@H](Cc2ccnc(C(C)(C)O)n2)c2c[nH]cn2)c1C [Compound 211, 2-{4-[(S)-2-(4-imidazolyl)-2-(2,3-xylyl)ethyl]-2-pyrimidinyl}-2-propanol] | 
7 | < 10 nM | Cc1cccc([C@@H](Cc2ccnc(C(C)(C)O)n2)c2c[nH]cn2)c1C [Compound 212, 2-{4-[(R)-2-(4-imidazolyl)-2-(2,3-xylyl)ethyl]-2-pyrimidinyl}-2-propanol] | 
8 |  | Cc1cccc([C@H](Cc2cn[nH]c2)c2c[nH]cn2)c1C [Compound 233, 4-[(S)-2-(4-imidazolyl)-2-(2,3-xylyl)ethyl]pyrazole] | < 10 nM
9 | > 500 nM | c1cc2c(c([C@@H](Cc3cc[nH]n3)c3c[nH]cn3)c1)OCC2 [Compound 237, 3-[(R)-2-(2,3-dihydro-1-benzofuran-7-yl)-2-(4-imidazolyl)ethyl]pyrazole] | 
10 | 10 to 50 nM | c1cc2c(c([C@H](Cc3cc[nH]n3)c3c[nH]cn3)c1)OCC2 [Compound 238, 3-[(S)-2-(2,3-dihydro-1-benzofuran-7-yl)-2-(4-imidazolyl)ethyl]pyrazole] | 
11 | > 500 nM | Cc1cccc([C@@H](Cc2cn(C)nn2)c2c[nH]cn2)c1C [Compound 239, 4-[(R)-2-(4-imidazolyl)-2-(2,3-xylyl)ethyl]-1-methyl-1H-1,2,3-triazole] | 
12 | > 500 nM | COc1c(C)cccc1C(Cc1cc[nH]n1)c1c[nH]cn1 (centres unmarked) [Compound 242, 3-[2-(4-imidazolyl)-2-(2-methoxy-3-tolyl)ethyl]pyrazole] | 
13 | 50 to 500 nM | Cc1nc(CC(c2c[nH]cn2)c2cccc(C)c2C)no1 (centres unmarked) [Compound 243, 3-[2-(4-imidazolyl)-2-(2,3-xylyl)ethyl]-5-methyl-1,2,4-oxadiazole-formic acid (1/1)] | 
14 | 50 to 500 nM | Cc1cccc([C@@H](Cc2ccnn2C)c2c[nH]cn2)c1F [Compound 246, 5-[(R)-2-(2-fluoro-3-tolyl)-2-(4-imidazolyl)ethyl]-1-methylpyrazole] | 
15 | 50 to 500 nM | Cc1cccc([C@H](Cc2ccnn2C)c2c[nH]cn2)c1F [Compound 247, 5-[(S)-2-(2-fluoro-3-tolyl)-2-(4-imidazolyl)ethyl]-1-methylpyrazole] | 
16 | < 10 nM | Cc1cccc([C@@H](Cc2cn(C)nn2)c2c[nH]cn2)c1F [Compound 249, 4-[(R)-2-(2-fluoro-3-tolyl)-2-(4-imidazolyl)ethyl]-1-methyl-1H-1,2,3-triazole] | 
17 | > 500 nM | Cc1cccc([C@H](Cc2cn(C)nn2)c2c[nH]cn2)c1F [Compound 250, 4-[(S)-2-(2-fluoro-3-tolyl)-2-(4-imidazolyl)ethyl]-1-methyl-1H-1,2,3-triazole] | 
18 | 10 to 50 nM | c1ccc(C[C@@H](c2c[nH]cn2)c2cccc3c2OCC3)nc1 [Compound 252, 4-[(R)-1-(2,3-dihydro-1-benzofuran-7-yl)-2-(2-pyridyl)ethyl]imida-] | 
19 | > 500 nM | Cn1ccc2cccc(C(Cc3cc[nH]n3)c3c[nH]cn3)c21 (centres unmarked) [Compound 253, 3-[2-(4-imidazolyl)-2-(1-methyl-7-indolyl)ethyl]pyrazole] | 
20 | 10 to 50 nM | Cc1cccc(C(Cc2cccnc2C)c2c[nH]cn2)c1C (centres unmarked) [Compound 254, 4-[2-(2-methyl-3-pyridyl)-1-(2,3-xylyl)ethyl]imidazole] | 
21 | < 10 nM | Cc1cc(CC(c2c[nH]cn2)c2cccc(C)c2C)ccn1 (centres unmarked) [Compound 255, 4-[2-(2-methyl-4-pyridyl)-1-(2,3-xylyl)ethyl]imidazole] | 
22 | 50 to 500 nM | Cc1cccc(C(Cc2cncnc2C)c2c[nH]cn2)c1C (centres unmarked) [Compound 256, 5-[2-(4-imidazolyl)-2-(2,3-xylyl)ethyl]-4-methylpyrimidine] | 
23 | > 500 nM | Cc1cc(CC(c2c[nH]cn2)c2cccc(C)c2C)ncn1 (centres unmarked) [Compound 257, 4-[2-(4-imidazolyl)-2-(2,3-xylyl)ethyl]-6-methylpyrimidine] | 
24 | 10 to 50 nM | Cn1cc(CC(c2c[nH]cn2)c2cccc3c2OCC3)nn1 (centres unmarked) [Compound 258, 4-[2-(2,3-dihydro-1-benzofuran-7-yl)-2-(4-imidazolyl)ethyl] 1-methyl-1H-1,2,3-triazole] | 
25 | 10 to 50 nM | Cc1cccc(CC(c2c[nH]cn2)c2cccc(C)c2F)n1 (centres unmarked) [Compound 259, 4-[1-(2-fluoro-3-tolyl)-2-(6-methyl-2-pyridyl)ethyl]imida-zole] | 
26 | 50 to 500 nM | COc1c(C)cccc1C(Cc1cn(C)nn1)c1c[nH]cn1 (centres unmarked) [Compound 260, 4-[2-(4-imidazolyl)-2-(2-methoxy-3-tolyl)ethyl]-1-methyl-1H-1,2,3-triazole] | 

Row | Compound | EC50 [1] | EC50
27 | Cc1cccc([C@@H](Cc2cn[nH]c2)c2c[nH]cn2)c1C [Compound 232, 4-[(R)-2-(4-imidazolyl)-2-(2,3-xylyl)ethyl]pyrazole] | > 500 nM | 
28 | Cc1cccc([C@@H](Cc2cc[nH]n2)c2c[nH]cn2)c1C [Compound 234, 3-[(R)-2-(4-imidazolyl)-2-(2,3-xylyl)ethyl]pyrazole] | > 500 nM | 
29 | Cc1cccc([C@H](Cc2cc[nH]n2)c2c[nH]cn2)c1C [Compound 235, 3-[(S)-2-(4-imidazolyl)-2-(2,3-xylyl)ethyl]pyrazole] | < 10 nM | 
30 | Cc1cccc(C(Cc2cc[nH]n2)c2c[nH]cn2)c1F (centres unmarked) [Compound 236, 3-[2-(2-fluoro-3-tolyl)-2-(4-imidazolyl)ethyl]pyrazole] | 50 to 500 nM | 
31 | Cc1cccc([C@H](Cc2cn(C)nn2)c2c[nH]cn2)c1C [Compound 240, 4-[(S)-2-(4-imidazolyl)-2-(2,3-xylyl)ethyl]-1-methyl-1H-1,2,3-triazole] | < 10 nM | 
32 | Cc1cccc(C(Cc2ccns2)c2c[nH]cn2)c1C (centres unmarked) [Compound 244, 5-[2-(4-imidazolyl)-2-(2,3-xylyl)ethyl]isothiazole] | < 10 nM | 
33 | Cc1cccc(C(Cc2ccsn2)c2c[nH]cn2)c1C (centres unmarked) [Compound 245, 3-[2-(4-imidazolyl)-2-(2,3-xylyl)ethyl]isothiazole] | < 10 nM | 
34 | Cc1cccc(C(Cc2ncns2)c2c[nH]cn2)c1C (centres unmarked) [Compound 248, 5-[2-(4-imidazolyl)-2-(2,3-xylyl)ethyl]-1,2,4-thiadiazole] | < 10 nM | 
35 | Fc1c(Cl)cccc1C(Cc1cc[nH]n1)c1c[nH]cn1 (centres unmarked) [Compound 251, 3-[2-(3-chloro-2-fluorophenyl)-2-(4-imidazolyl)ethyl]py-razole] | 50 to 500 nM | 
